Measured values published in PubChem BioAssay AID2060908 (Molecular Pharmacology Branch, DTP, NCI, 2025).
Where “and” joins values, the source holds several entries; their conditions need not be identical. Equal values may be shown once.

System: 186277-243-T-J2-PDC complex spheroids, viability
Test: Anticancer human tumor 186277-243-T-J2-PDC patient-derived colon adenocarcinoma cell line growth inhibition [RAS]
Details: for viability, T/C: stronger effect = lower value
How it was run: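 Tumour cells grown as complex spheroids with HUVEC endothelial cells and mesenchymal stem cells, treated with RAS pathway inhibitor combinations. Each agent spans half-log steps from near clinical Cmax, or 10 microM where Cmax is unknown.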
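Note: spheroids exposed to compounds for 7 days before viability read.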

## CC(Nc1ccc2c(c1)OCCn1cc(N3C(=O)OCC3C(F)F)nc1-2)C(N)=O (configuration not stated) + CCn1c(-c2cccnc2C(C)OC)c2c3cc(ccc31)N1CCOC(CC(NC(=O)C(C(C)C)N(C)C(=O)C3(F)CCN(C(=O)C#CC(C)(C)N(C)C)CC3)C(=O)N3CCCC(N3)C(=O)OCC(C)(C)C2)C1
Curve of first compound, second compound 0.000949 µM
  IC50: 5910 nM
Curve of first compound, second compound 0.003 µM
  IC50: 5850 nM
Curve of first compound, second compound 0.00949 µM
  IC50: 5630 nM
Curve of first compound, second compound 0.03 µM
  IC50: 5690 nM
Curve of first compound, second compound 0.0949 µM
  IC50: 2560 nM
Curve of first compound, second compound 0.3 µM
  IC50: 317 nM
Second compound 0.000949 µM, first compound 0.0316 µM
  viability, T/C: 108%
Second compound 0.000949 µM, first compound 0.1 µM
  viability, T/C: 97.7%
Second compound 0.000949 µM, first compound 0.316 µM
  viability, T/C: 70.5%
Second compound 0.000949 µM, first compound 1 µM
  viability, T/C: 49.3%
Second compound 0.000949 µM, first compound 3.16 µM
  viability, T/C: 96.2%
Second compound 0.000949 µM, first compound 10 µM
  viability, T/C: 21.1%
Second compound 0.003 µM, first compound 0.0316 µM
  viability, T/C: 95.1%
Second compound 0.003 µM, first compound 0.1 µM
  viability, T/C: 90.1%
Second compound 0.003 µM, first compound 0.316 µM
  viability, T/C: 66.2%
Second compound 0.003 µM, first compound 1 µM
  viability, T/C: 55.3%
Second compound 0.003 µM, first compound 3.16 µM
  viability, T/C: 105%
Second compound 0.003 µM, first compound 10 µM
  viability, T/C: 21.8%
Second compound 0.00949 µM, first compound 0.0316 µM
  viability, T/C: 78.8%
Second compound 0.00949 µM, first compound 0.1 µM
  viability, T/C: 94%
Second compound 0.00949 µM, first compound 0.316 µM
  viability, T/C: 74.3%
Second compound 0.00949 µM, first compound 1 µM
  viability, T/C: 52.1%
Second compound 0.00949 µM, first compound 3.16 µM
  viability, T/C: 102%
Second compound 0.00949 µM, first compound 10 µM
  viability, T/C: 19.8%
Second compound 0.03 µM, first compound 0.0316 µM
  viability, T/C: 105%
Second compound 0.03 µM, first compound 0.1 µM
  viability, T/C: 91.7%
Second compound 0.03 µM, first compound 0.316 µM
  viability, T/C: 65.3%
Second compound 0.03 µM, first compound 1 µM
  viability, T/C: 48%
Second compound 0.03 µM, first compound 3.16 µM
  viability, T/C: 108%
Second compound 0.03 µM, first compound 10 µM
  viability, T/C: 17.6%
Second compound 0.0949 µM, first compound 0.0316 µM
  viability, T/C: 102%
Second compound 0.0949 µM, first compound 0.1 µM
  viability, T/C: 91.9%
Second compound 0.0949 µM, first compound 0.316 µM
  viability, T/C: 59.2%
Second compound 0.0949 µM, first compound 1 µM
  viability, T/C: 38.5%
Second compound 0.0949 µM, first compound 3.16 µM
  viability, T/C: 97.8%
Second compound 0.0949 µM, first compound 10 µM
  viability, T/C: 12.3%
Second compound 0.3 µM, first compound 0.0316 µM
  viability, T/C: 96.1%
Second compound 0.3 µM, first compound 0.1 µM
  viability, T/C: 66.4%
Second compound 0.3 µM, first compound 0.316 µM
  viability, T/C: 47.1%
Second compound 0.3 µM, first compound 1 µM
  viability, T/C: 25.4%
Second compound 0.3 µM, first compound 3.16 µM
  viability, T/C: 86.4%
Second compound 0.3 µM, first compound 10 µM
  viability, T/C: 7.8%

## CC1(O)CCCC1n1c(=O)c(C(F)F)cc2cnc(NC3CCN(S(C)(=O)=O)CC3)nc21 (configuration not stated) + C#Cc1c(F)ccc2cc(O)cc(-c3ncc4c(N5CC6CCC(C5)N6)nc(OCC56CCCN5CC(F)C6)nc4c3F)c12
Curve of first compound, second compound 0.0316 µM
  IC50: 570 nM
Curve of first compound, second compound 0.1 µM
  IC50: 104 nM
Curve of first compound, second compound 0.316 µM
  IC50: < 31.6 nM
Curve of first compound, second compound 1 µM
  IC50: < 31.6 nM
Curve of first compound, second compound 3.16 µM
  IC50: < 31.6 nM
Curve of first compound, second compound 10 µM
  IC50: < 31.6 nM
Second compound 0.0316 µM, first compound 0.0316 µM
  viability, T/C: 71.2%
Second compound 0.0316 µM, first compound 0.1 µM
  viability, T/C: 69.4%
Second compound 0.0316 µM, first compound 0.316 µM
  viability, T/C: 47.3%
Second compound 0.0316 µM, first compound 1 µM
  viability, T/C: 43.7%
Second compound 0.0316 µM, first compound 3.16 µM
  viability, T/C: 33.4%
Second compound 0.0316 µM, first compound 10 µM
  viability, T/C: 1.2%
Second compound 0.1 µM, first compound 0.0316 µM
  viability, T/C: 65.4%
Second compound 0.1 µM, first compound 0.1 µM
  viability, T/C: 50.3%
Second compound 0.1 µM, first compound 0.316 µM
  viability, T/C: 31.8%
Second compound 0.1 µM, first compound 1 µM
  viability, T/C: 27.8%
Second compound 0.1 µM, first compound 3.16 µM
  viability, T/C: 20.9%
Second compound 0.1 µM, first compound 10 µM
  viability, T/C: 0.42%
Second compound 0.316 µM, first compound 0.0316 µM
  viability, T/C: 23.6%
Second compound 0.316 µM, first compound 0.1 µM
  viability, T/C: 23.3%
Second compound 0.316 µM, first compound 0.316 µM
  viability, T/C: 17%
Second compound 0.316 µM, first compound 1 µM
  viability, T/C: 16.9%
Second compound 0.316 µM, first compound 3.16 µM
  viability, T/C: 11.4%
Second compound 0.316 µM, first compound 10 µM
  viability, T/C: 0.33%
Second compound 1 µM, first compound 0.0316 µM
  viability, T/C: 15.6%
Second compound 1 µM, first compound 0.1 µM
  viability, T/C: 13.1%
Second compound 1 µM, first compound 0.316 µM
  viability, T/C: 10%
Second compound 1 µM, first compound 1 µM
  viability, T/C: 12.4%
Second compound 1 µM, first compound 3.16 µM
  viability, T/C: 10.8%
Second compound 1 µM, first compound 10 µM
  viability, T/C: 0.24%
Second compound 3.16 µM, first compound 0.0316 µM
  viability, T/C: 11.4%
Second compound 3.16 µM, first compound 0.1 µM
  viability, T/C: 12.1%
Second compound 3.16 µM, first compound 0.316 µM
  viability, T/C: 9.69%
Second compound 3.16 µM, first compound 1 µM
  viability, T/C: 8.93%
Second compound 3.16 µM, first compound 3.16 µM
  viability, T/C: 9.39%
Second compound 3.16 µM, first compound 10 µM
  viability, T/C: 0.27%
Second compound 10 µM, first compound 0.0316 µM
  viability, T/C: 9.74%
Second compound 10 µM, first compound 0.1 µM
  viability, T/C: 8.08%
Second compound 10 µM, first compound 0.316 µM
  viability, T/C: 9.05%
Second compound 10 µM, first compound 1 µM
  viability, T/C: 8.95%
Second compound 10 µM, first compound 3.16 µM
  viability, T/C: 8.58%
Second compound 10 µM, first compound 10 µM
  viability, T/C: 0.36%

## CCN1CCN(Cc2ccc(Nc3ncc(F)c(-c4cc(F)c5nc(C)n(C(C)C)c5c4)n3)nc2)CC1
Compound 0.01 µM
  viability, T/C: 102% (3×) and 98.7%
Compound 0.1 µM
  viability, T/C: 127% [middle of 4 runs]
Curve of compound
  IC50: > 1000 nM
